Test results from patent US11332771B2, “Serum-free cell culture medium” (Regeneron Pharmaceuticals, Inc., priority 2013, dated 2022).
Counter-ions that a name gives are not always drawn. Like-named read-outs stand apart in the source and are kept apart here.

Columns and labels:
[1] = test system: recombinant antibody producing cell line derived from CHO K1; assay: Antibody titer in Medium 3 with various amounts of ornithine.HCl, 50 mL TubeSpin Bioreactors; type: cell-based, Chinese hamster; details: Medium 3, three days, all three levels of ornithine supplementation, N=3
Excerpt: The results are depicted in Table 6.

[2] = test system: recombinant antibody producing cell line derived from CHO K1 cells; assay: Cell doubling time in logarithmic growth phase, seed train cultures passaged over 14 days; type: cell-based, Chinese hamster; details: ornithine.HCl 100 mg/L, with or without putrescine.2HCl 115 mg/L
Protocol: The doubling time of a recombinant antibody producing cell line derived from CHO K1 cells in logarithmic growth phase was determined under various cell culture media conditions. Seed train cultures were passaged at 36.5° C. in 250 mL shaker flasks over a period of 14 days in each of three separate media: Medium 1, Medium 2, and Medium 2 containing soy hydrolysate (Medium 2+ Soy). Aliquots of 1 mL were removed from each condition on Day 0 and at the time of seed train passage (every 2 or 3 days), and viable cell counts were conducted using trypan blue exclusion on a CDV™ instrument (Nova Biomedical).

CHO-K1 derived cell line = details: for Average seven-day antibody titer: 100 mg/L ornithine.HCl, with or without 115 mg/L putrescine.2HCl
Protocol: We examined the expression and secretion of recombinant IgG by a CHO-K1 derived cell line. In this experiment, the average antibody titer was determined at day seven in culture under various media formats.

SMILES: NCCC[C@H](N)C(=O)O [Ornithine, L-ornithine.HCl]
- Improvement of antibody titer on the average [1]: more than 50%
- Cell doubling time ([2]; Medium 1): 23 h
- Cell doubling time ([2]; Medium 2 + Soy): 20.5 h
- Cell doubling time ([2]; Medium 2): 21 h
- Average seven-day antibody titer (CHO-K1 derived cell line; Medium 1): 0.94 g/L
- Average seven-day antibody titer (CHO-K1 derived cell line; Medium 2 + Soy): 0.98 g/L
- Average seven-day antibody titer (CHO-K1 derived cell line; Medium 2): 0.65 g/L
- Increase in protein titer (CHO-K1 derived cell line; day seven, in all cases (Medium 1, Medium 2, Medium 2+ Soy), versus low putrescine 0.4 mg/L): at least about two-fold
